Tests used:
injured carotid artery [1] = assay: Carotid artery angiography in the rat carotid artery balloon injury model; assay type: in vivo; details: 100 μg obovatol in 100 μL pluronic gel, topical to injured carotid artery; 14 days after arteriotomy; mean±S.E.; control 0.63±0.12; p<0.01
Method: A 4F vascular cannula (Cook, USA) was inserted into the ventral aorta and the catheter was advanced toward the head to a locus as close as possible to a branch between the common carotid arteryand the transverse aorta. After the injection of a contrast media (Visipaque™, Amersham Health, Cork, Ireland), mean luminal diameters (MLD) were measured using computerized coronary angiography (DCI Videodensitometry, Phillips, Netherlands)(See FIG. 1˜FIG. 8).
They were measured for the inner diameter of the carotid artery using a 5F coronary catheter, and the mean value thereof was used as a control.

[2] = system: arterial smooth muscle cells; assay: Inhibition of PDGF-induced arterial smooth muscle cell proliferation (cell count); assay type: cell-based, rat; details: obovatol 1, 3, 5 μM; 50 ng/ml PDGF-BB; 24, 48, 72 hours; FIG. 9
Method: Obovatol was examined for inhibitory activity against the proliferation of arterial smooth muscle cells in rats. Arterial smooth muscle cells were plated at a density of 3.0×10^4 cells/well onto 12-well plates containing a DMEM medium supplemented with 0.5% (V/V) fetal bovine serum, and incubated for 24 hours After the addition of obovatol (1, 3, and 5 μM) to the plates, the cells were incubated for 24 hours. Treatment with 50 ng/ml of platelet-derived growth factor (PDGF-BB, Sigma Chem. Co., USA) was followed by incubation for 24, 48, and 72 hours. Thereafter, the cells were trypsinized and counted using a cell counter.

SPF Sprague-Dawley rats = assay: Acute toxicity assay in rats; assay type: in vivo, rat; details: abdominal injection 1000, 100, 10 mg/kg
Method: (§1) ICR mice (weighing 25±5 g) and SPF Sprague-Dawley rats (weighing 235±10 g) were separately divided into four groups of three and abdominally injected with the obovatol prepared in Example 2 at doses of 1000 mg/kg, 100 mg/kg, and 10 mg/kg and monitored for toxicity over 24 hours.

[3] = system: arterial smooth muscle cells; assay: Inhibition of DNA synthesis ([3H] thymidine) in PDGF-treated arterial smooth muscle cells; assay type: cell-based, rat; details: obovatol 1, 3, 5 μM, FIG. 10
Method: Arterial smooth muscle cells were cultured in the same manner as in Example 4, with the exception that the cells were cultured for 20 hours after treatment with platelet-derived growth factor, and then cultured for 4 hours in the presence of 1 μl of [3H] thymidine. The cultured cells were washed with PBS and incubated with 500 μl of TCA (trichloroacetic acid) for 30 min. After the removal of TCA, the cells were washed with a mixture of 1:1 ethanol:ether (v/v) and disrupted with 500 μl of NaOH. The cell lysate was mixed with 5 ml of a scintillation cocktail and measured for radioactivity to analyze relative amounts of newly synthesized DNA. FIG. 10 is a graph in which amounts of newly synthesized DNA in PDGF-treated arterial smooth muscle cells are plotted against concentrations of obovatol.

ICR mice = assay: Acute toxicity assay in mice; assay type: in vivo, mouse; details: abdominal injection 1000, 100, 10 mg/kg
Method: as §1

injured carotid artery [4] = system: injured carotid artery
Method: For the topical application of obovatol in vivo, pluronic gel was employed. F-127 pluronic gel (Sigma Chemical Company, Germany) was dissolved in cold, deionized water to give 40% gel one day before the experiment, and was allowed to stand at 4° C. for 12 hours to dissolve powdered F-127 pluronic gel completely. On the day of the experiment, obovatol was dissolved in a concentration of 10 μg/μL in 100% ethanol and 10 μL of the obovatol solution (10 μg/μL) was mixed with 90 μL of the 40% F-127 pluronic gel to afford 100 μL of obovatol-pluronic gel, comprising 100 μg of obovatol. A control was prepared in the same manner except that no obovatol was contained therein.
After rats were anaesthetized by abdominal injection with ketamine (50 mg/kg) and xylazine (6.7 mg/kg) and incised to expose the common carotid artery, the external carotid artery and the internal carotid artery were exteriorized through a ventral right line neck incision. While blood flow was temporarily halted by occluding the artery with microvascular clamps (Acland, S&T, Switzerland) at the proximal region of the common carotid artery and the distal region of the internal carotid artery, arteriotomy was performed on the external carotid artery. A 2F Fogarty arterial embolectomy catheter (Baxter Healthcare Corporation, USA) was inserted into the lumen of the right common carotid artery through the incised region and the balloon was inflated to a size larger than the diameter of the common carotid artery so as to generate slight arterial wall resistance. The catheter was advanced a predetermined distance and then withdrawn. This procedure was repeated a total of three times to induce endothelial denudation, after which the catheter (the balloon?) was removed from the arterial lumen. Then, the microvascular clamps were removed to allow blood to flow through the artery. Secretions and blood were completely removed from the exterior of the carotid artery before the obovatol-pluronic gel or the obovatol-lacking pluronic gel were topically applied in an amount of 100 μL to upper loci of the carotid artery, followed by ligation of the artery with a suture. Two weeks after the arteriotomy, a carotid artery angiography was conducted and a carotid artery sample was taken and analyzed histopathologically.

[5] = system: arterial smooth muscle cells; assay: Cell cycle of arterial smooth muscle cells; assay type: cell-based
[6] = 100 μg obovatol in pluronic gel, topical, two weeks after injury, control 0.18 ± 0.06, P < 0.05

obovatol
inner diameter of carotid artery (mean luminal diameter) (injured carotid artery [1]): 0.78±0.06 mm
growth of arterial smooth muscle cells (cell count) [2]: inhibitory of the growth of arterial smooth muscle cells
abnormality (body weight, food intake, etc.) (SPF Sprague-Dawley rats; 24 hours): no abnormality observed in any of the animals
death (SPF Sprague-Dawley rats; monitored 24 hours): Death was observed in none of the four groups
DNA synthesis ([3H] thymidine incorporation) [3]: decreases with the increasing concentration of obovatol
abnormality (body weight, food intake, etc.) (ICR mice; 24 hours): no abnormality observed in any of the animals
death (ICR mice; monitored 24 hours): Death was observed in none of the four groups
Medial Area (mm^2) (injured carotid artery [4]; 100 μg obovatol in pluronic gel, topical, two weeks after injury, control 0.12 ± 0.02, P > 0.05): 0.11 ± 0.10 mm^2
Intimal Area (mm^2) (injured carotid artery [4]; [6]): 0.13 ± 0.03 mm^2
Intimal Thickness (mm) (injured carotid artery [4]; [6]): 0.23 ± 0.02 mm
Intimal-Medial Area Ratio (injured carotid artery [4]; 100 μg obovatol in pluronic gel, topical, two weeks after injury, control 1.54 ± 0.48, P < 0.05): 1.12 ± 0.23
Stenosis (%) (injured carotid artery [4]; 100 μg obovatol in pluronic gel, topical, two weeks after injury, control 50.10 ± 13.25, P < 0.01): 34.94 ± 7.23%
cytotoxicity inferred from similar medial thickness to control (injured carotid artery [4]; rat, in vivo): no cytotoxicity
proportion of cells in resting state (G0/G1) of the cell cycle [5]: increased the proportion of cells in a resting state (G0/G1)
